Source: article PMC10871122, “Synthesis and In Vitro Evaluation as Potential Anticancer and Antioxidant Agents of Diphenylamine-Pyrrolidin-2-one-Hydrazone Derivatives” (International Journal of Molecular Sciences, 2023)

Legend:
melanoma cell = system: melanoma cell; set-up: method as in PMID 21700700; settings: cited from earlier work
[1] = system: human foreskin fibroblasts (HF) CRL-4001; assay: MTT cell viability assay, fibroblasts; assay type: cell-based; settings: 100 µM, 72 h
Text: (§1) The human malignant melanoma cell line IGR39, human triple-negative breast cancer MDA-MB-231, and human pancreatic carcinoma cell line Panc-1 were obtained from the American Type Culture Collection (ATCC, Manassas, VA, USA). Human foreskin fibroblasts (HF) CRL-4001 were originally obtained from ATCC and kindly provided by Prof. Helder Santos (University of Helsinki, Finland). Primary prostate carcinoma PPC-1 cell line was kindly provided by Prof. Tambet Teesalu (University of Tartu, Estonia). All cell lines were cultured in Dulbecco’s Modified Eagle’s GlutaMAX medium (Gibco (Carlsbad, CA, USA)), supplemented with 10,000 U/mL penicillin, 10 mg/mL streptomycin (Gibco), and 10% fetal bovine serum (Gibco). Cell cultures were grown at 37 °C in a humidified atmosphere containing 5% CO2. They were used until the passage of 20.
(§2) The effect of synthesized compounds on cell viability was studied using 3-(4,5-dimethylthiazol-2-yl)-2,5-diphenyltetrazolium bromide (MTT; Sigma-Aldrich Co., St Louis, MO, USA) assay, as described elsewhere. To summarize, the cells were seeded in triplicates in 96-well Corning plates (IGR39, MDA-MB-231, Panc-1 and PPC1: 4 × 10^3 cells/well; HF: 5 × 10^3 cells/well). The cells were treated with 100 μM of tested compounds after 24 h of incubation. After 72 h, the MTT reagent was added and the formazan crystals that had formed were dissolved in DMSO (Sigma-Aldrich Co., St. Louis, MO, USA). The absorbance was determined with a multidetection microplate reader at 570 and 630 nm.
(§3) The compound serial dilutions ranging from 50 µM to 1.56 µM were introduced to the cells. The Hill equation was used to calculate the EC50 value, or the concentration of a compound that results in a 50% reduction in the metabolic activity of cells.

[2] = Ferric reducing antioxidant power (FRAP) assay; settings: for FRAP reducing power (Fe^2+): absorbance at 593 nm; for reducing power activity compared to the control antioxidant: vs protocatechuic acid
Text: The ferric reducing antioxidant power (FRAP) assay was used to evaluate the antioxidant potential of new compounds 2–17. Antioxidant assays are based on determining reduction power reactions (e.g., reduction Fe^3+ to Fe^2+) or scavenging free radicals (DPPH, ABTS). The FRAP assay is based on the method of single electron transfer (SET), measuring the reduction in the complex of ferric ions (Fe^3+)-ligand to the blue ferrous complex (Fe^2+). This method uses 2,4,6-tripyridyl-s-triazine (TPTZ) as the linking ligand to the iron. The antioxidant activity of the synthesized compounds was compared with that of the well-known antioxidant protocatechuic acid. […] PCA is a building block for pharmaceuticals and is widely used to produce many medicinal products such as veratridine (sodium channel inactivation inhibitor), erlotinib (antineoplastic), Picatin II (treatment of hepatitis B), itopride hydrochloride (gastrointestinal motility drug). PCA can also cause the induction of apoptosis of human leukemia cells. Moreover, the antioxidant activity of PCA is based on the reduction in free radical formation via the up-regulation of genes encoding enzymes with neutralizing activities.
Antioxidant activity was determined as an increase in absorbance at 593 nm, and the results were expressed as of Fe^2+ μmol/L and in relation to antioxidants, and protocatechuic acid, as positive control. The FRAP reagent contained 2.5 mL of 10 mM TPTZ solution in 40 mM HCl as well as 2.5 mL of FeCl3 (20 mM) and 25 mL of acetate buffer (0.3 M, pH = 3.6). Then, 100 μL of analyzed compounds (20 mM) were mixed with 3 mL of the FRAP reagent. The absorbance of the reaction mixture was measured spectrophotometrically at 593 nm using a UV-1280 UV-VIS spectrophotometer (Shimadzu Corporation, Kyoto, Japan). To compose the calibration curve, five concentrations of FeSO4·7H2O (5, 10, 15, 20, 25 μM) were used, and the absorbance was measured as a sample solution.

[3] = system: prostate carcinoma PPC-1 cell line; assay: MTT cell viability assay, prostate carcinoma PPC-1; assay type: cell-based, human; settings: for effect on cell viability compared among the cell lines: 100 µM, 72 h, MTT
Text: as §1, §2, §3

[4] = system: human melanoma IGR39 cell line; assay: MTT cell viability assay, melanoma IGR39; assay type: cell-based; settings: for effect on cell viability compared among the cell lines: 100 µM
Text: as §1, §2, §3

[5] = system: PPC-1 spheroids (cancer cells with fibroblasts 1:1); assay: 3D culture: PPC-1 spheroid size and viability (WST-1); assay type: cell-based, human; settings: 5 and 10 µM, 8 days
Method: (§4) Spheroids were made of cancer cells combined with fibroblast in a 1:1 ratio to better represent the real tumor microenvironment.
(§5) The magnetic 3D Bioprinting method was utilized to form cancer cell spheroids as described elsewhere. In short, the cells at 70% confluency were incubated with Nanoshuttle (n3D Biosciences, Inc., Houston, TX, USA) for 8 h. After that, the cells were trypsinized, centrifuged and seeded into ultra-low attachment 96-well plate at a ratio of 1.5 × 10^3 cancer cells and 1.5 × 10^3 human fibroblasts/well. The plate was incubated for two days at 37 °C in a humidified atmosphere on a magnetic drive. Next, the medium with 5 and 10 µM of selected compounds was added. Photos of spheroids were taken every two days using an Olympus IX73 inverted microscope (OLYMPUS CORPORATION, Tokyo, Japan), and analysis of spheroid size was performed using ImageJ, version 1.53o (National Institutes of Health, Bethesda, MD, USA) and Microsoft Office Excel 2016 software (Microsoft Corporation, Redmond, WA, USA).
(§6) On the last day of experiment, 10 µL of WST-1 reagent (Sigma-Aldrich Co, St. Louis, MO, USA) was added to each well. Following 10-h incubation, 50 µL of liquid from each well was moved to another 96-well plate and the absorbance was measured at 460 and 530 nm.

[6] = system: tested cancer cell lines (IGR39, PPC-1, MDA-MB-231, Panc-1); assay: MTT cell viability assay, statements on the tested cancer cell lines together; assay type: cell-based, human; settings: Homo sapiens; against IGR39 and PPC-1 cell lines
Method: as §2, §3

[7] = system: IGR39 spheroids (cancer cells with fibroblasts 1:1); assay: 3D culture: IGR39 spheroid size and viability (WST-1); assay type: cell-based, human; settings: for effect on spheroid growth / size: 5 and 10 µM, 8 days
Method: as §4, §5, §6

[8] = system: human triple-negative breast cancer MDA-MB-231 cell line; assay: MTT cell viability assay, MDA-MB-231; assay type: cell-based; settings: Homo sapiens, 72 h, MDA-MB-231
Text: as §1, §2, §3

PPC-1 cell migration = assay: 'Wound healing' migration assay, PPC-1; assay type: cell-based, human; settings: higher concentration (5 µM), 72 h of incubation
Method: Cancer cells were seeded at a density of 6 × 10^4 cells/well in 24-well plates. After 48 h of incubation, a 100 µL pipette tip was used to make the scratch in each well. Following a single PBS wash, the fresh medium containing 2 and 5 µM of compounds 5, 6, 13, and 14 was added to the cells. As a negative control, medium containing 0.1% DMSO was employed.

Row | Structure (SMILES) | melting point [°C] | EC50 [6] [µM] | effect on fibroblasts compared to cancer cell lines [1] | reducing power activity compared to the control antioxidant [2] | effect on cell viability compared among the cell lines ([4]; 72 h, MTT) | other results
1 | CN(C)/N=N/c1[nH]cnc1C(N)=O [dacarbazine] |  |  |  |  |  | concentration that inhibits melanoma cell proliferation (melanoma cell): 25 to 100 µM
2 | CC(=NNC(=O)C1CC(=O)N(c2ccc(Nc3ccccc3)cc2)C1)c1cccc(N)c1 (centres unmarked) [Compound 17, N′-(1-(3-aminophenyl)ethylidene)-5-oxo-1-(4-(phenylamino)phenyl)pyrrolidine-3-carbohydrazide] | 239 to 240 |  | affected fibroblasts more than the tested cancer cell lines | higher than those of known antioxidants used as the controls |  | FRAP reducing power (Fe^2+) [2]: 129.28 µmol/L; effect on cell viability compared among the cell lines [3]: most active against the prostate carcinoma cell line
3 | CCN(CC)c1ccc(C=NNC(=O)C2CC(=O)N(c3ccc(Nc4ccccc4)cc3)C2)c(O)c1 (centres unmarked) [Compound 8, N′-(4-(diethylamino)-2-hydroxybenzylidene)-5-oxo-1-(4-(phenylamino)phenyl)pyrrolidine-3-carbohydrazide] | 239 to 240 |  | affected fibroblasts more than the tested cancer cell lines | higher than those of known antioxidants used as the controls | strongest effect on melanoma cells | FRAP reducing power (Fe^2+) [2]: 120.24 µmol/L
4 | CSc1ccc(C=NNC(=O)C2CC(=O)N(c3ccc(Nc4ccccc4)cc3)C2)cc1 (centres unmarked) [Compound 10, N′-(4-(methylthio)benzylidene)-5-oxo-1-(4-(phenylamino)phenyl)pyrrolidine-3-carbohydrazide] | 193 to 194 |  | affected fibroblasts more than the tested cancer cell lines |  | strongest effect on melanoma cells | 
5 | O=C(NN=Cc1ccc(Cl)c(Cl)c1)C1CC(=O)N(c2ccc(Nc3ccccc3)cc2)C1 (centres unmarked) [Compound 6, N′-(3,4-dichlorobenzylidene)-5-oxo-1-(4-(phenylamino)phenyl)pyrrolidine-3-carbohydrazide] | 220 to 221 | 2.5 to 20.2 |  | higher than those of known antioxidants used as the controls | strongest effect on melanoma cells | selectivity towards cancer cells compared to fibroblasts ([4]; IGR39 (melanoma) vs fibroblasts): 2.8; effect on cell migration (PPC-1 cell migration): inhibited; effect on spheroid viability compared to the control ([7]; WST-1, end of experiment): statistically significant effect

Continued, in another order:

Row | melting point [°C] | EC50 [6] [µM] | Structure (SMILES) | effect on fibroblasts compared to cancer cell lines [1] | reducing power activity compared to the control antioxidant [2] | effect on cell viability compared among the cell lines ([4]; 72 h, MTT) | other results
6 | 122 to 123 |  | O=C(NN=Cc1ccccc1)C1CC(=O)N(c2ccc(Nc3ccccc3)cc2)C1 (centres unmarked) [Compound 2, N′-benzylidene-5-oxo-1-(4-(phenylamino)phenyl)pyrrolidine-3-carbohydrazide] | affected fibroblasts more than the tested cancer cell lines | higher than those of known antioxidants used as the controls | strongest effect on melanoma cells | 
7 | 240 to 241 |  | O=C(NN=Cc1ccc(Br)s1)C1CC(=O)N(c2ccc(Nc3ccccc3)cc2)C1 (centres unmarked) [Compound 12, N′-((5-bromothiophen-2-yl)methylene)-5-oxo-1-(4-(phenylamino)phenyl)pyrrolidine-3-carbohydrazide] | affected fibroblasts more than the tested cancer cell lines | higher than those of known antioxidants used as the controls |  | effect on cell viability compared among the cell lines [3]: most active against the prostate carcinoma cell line
8 | 223 to 224 | 2.5 to 20.2 | O=C(NN=Cc1cc(Cl)ccc1O)C1CC(=O)N(c2ccc(Nc3ccccc3)cc2)C1 (centres unmarked) [Compound 5, N′-(5-chloro-2-hydroxybenzylidene)-5-oxo-1-(4-(phenylamino)phenyl)pyrrolidine-3-carbohydrazide] |  |  | strongest effect on melanoma cells | effect on spheroid growth / size [5]: did not affect spheroid growth; effect on spheroid growth / size [7]: did not affect spheroid growth; effect on spheroid viability compared to the control ([7]; WST-1, end of experiment): statistically significant effect; spheroid cell viability (reduced up to) ([7]; WST-1, end of experiment): ~ 75%; selectivity towards cancer cells compared to fibroblasts ([3]; prostate carcinoma vs fibroblasts): 3.6
9 | 238 to 239 | 2.5 to 20.2 | O=C(NN=Cc1c[nH]c2ccccc12)C1CC(=O)N(c2ccc(Nc3ccccc3)cc2)C1 (centres unmarked) [Compound 14, N′-((1H-indol-3-yl)methylene)-5-oxo-1-(4-(phenylamino)phenyl)pyrrolidine-3-carbohydrazide] |  |  | strongest effect on melanoma cells | EC50 ([4]; Homo sapiens, IGR-39, MTT, 72 h, IGR39): 10.4 ± 1.35 µM; effect on spheroid growth / size [5]: slightly reduced the growth; effect on spheroid growth / size [7]: became somewhat larger; EC50 [8]: 19.8 ± 1.86 µM
